Molecular target: T1, UDP-3-O-acyl-N-acetylglucosamine deacetylase (Pseudomonas aeruginosa (strain ATCC 15692 / PAO1 / 1C / PRS 101 / LMG12228), UniProt P47205)
T1 sequence (P47205 whole entry): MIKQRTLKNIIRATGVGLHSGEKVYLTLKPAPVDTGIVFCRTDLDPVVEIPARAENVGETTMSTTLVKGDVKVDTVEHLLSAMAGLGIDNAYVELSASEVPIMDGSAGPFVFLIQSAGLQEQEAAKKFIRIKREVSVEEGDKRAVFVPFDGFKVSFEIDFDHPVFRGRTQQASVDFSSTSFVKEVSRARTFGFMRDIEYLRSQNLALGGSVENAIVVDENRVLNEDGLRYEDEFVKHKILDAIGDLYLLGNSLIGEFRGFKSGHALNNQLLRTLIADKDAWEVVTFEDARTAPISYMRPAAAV
Description: The reaction was performed in 40 mmol/L of Hepes buffer solution (pH 8.0) supplemented with 0.02% Bridge 35 and 80 µmol/L of dithiothreitol. To terminate the reaction, 0.2 mol/L of borax was added to the reaction mixture.

In the case of `CNC(=O)C(C(=O)NO)N(C)C(=O)c1ccc(-c2ccc(OCCCN3CCOCC3)cc2)cc1` (stereo unspecified), the IC50 is reported as 6.7 nM.
